Assay results from US6086849A, “Technetium-99m labeled peptides for imaging” (Diatide, Inc., priority 1995, dated 2000).

Columns and labels:
[1] = tested on: deep vein thrombus (femoral vein, embolization coil); assay: In vivo imaging of deep vein thrombosis in a canine model; design: species or system dog
Description: Mongrel dogs (25-35 lb., fasted overnight) were sedated with a combination of ketamine and aceprozamine intramuscularly and then anesthetized with sodium pentobarbital intravenously. An 18-gauge angiocath was inserted in the distal half of the right femoral vein and an 8 mm Dacron®-entwinedstainless steel embolization coil (Cook Co., Bloomington Ind.) was placed in the femoral vein at approximately mid-femur in each animal. The catheter was removed, the wound sutured and the placement of the coil documented by X-ray. The animals were then allowed to recover overnight.
One day following coil placement, each animal was re-anesthetized, intravenous saline drips placed in each foreleg and a urinary bladder catheter inserted to collect urine. The animal was placed supine under a gamma camera which was equipped with a low-energy, all purpose collimator and photopeaked for Tc-99m. Images were acquired on a NucLear Mac computer system.
Tc-99m labeled P357 [(CH2 CO--YD.Apc.GDCGGCAcm GCAcm GGC.amide)2 -[BAT-BS]] [185-370 MBq (5-10 mCi) Tc-99m and 0.2-0.4 mg P357] was injected into one foreleg intravenous line at its point of insertion. The second line was maintained for blood collection. Anterior images over the legs were acquired for 500,000 counts or 20 min (whichever was shorter), at approximately 10-20 min, and at approximately 1, 2, 3 and 4 h post-injection. Following the collection of the final image, each animal was deeply anesthetized with pentobarbital. Two blood samples were collected on a cardiac puncture using a heparinized syringe followed by a euthanazing dose of saturated potassium chloride solution administered by intercardiac or bolus intravenous injection. The femoral vein containing the thrombus and samples of thigh muscle were then carefully dissected out. The thrombus was then dissected free of the vessel and placed in a pre-weighed test tube. The thrombus samples were then weighed and counted in a gamma well counter in the Tc-99m channel. Known fractions of the injected doses were counted as well.
Fresh thrombus weight, percent injected dose (%ID)/g in the thrombus and blood obtained just prior to euthanasia and thrombus/blood and thrombus/muscle ratios determined. Thrombus/background ratios were determined by analysis of the counts/pixel measured in regions-of-interest(ROI) drawn over the thrombus and adjacent muscle from computer-stored images.

atherosclerotic plaque = format: in vivo, New Zealand White rabbit
Protocol: Twenty-two New Zealand White (NZW) rabbits of both sexes and weighing 2-3 kg were divided into two groups. The control group consisted of 6 rabbits that were housed and fed commercial rabbit chow (Purina). Sixteen rabbits, the HC group, were fed a standardized, cholesterol-rich diet (rabbit chow mixed to a 1% w/w concentration of cholesterol) from seven weeks until 28 weeks of age. All animals were given water ad libitum.
Tc-99m labeled P215 ([BAT]RALVDTLKFVTQAEGAK.amide) was prepared as described above. Approximately 250-400 μg of peptide was labeled with 140-160 mCi of Tc-99m and prepared in unit doses of 7-8 mCi (12.5-20.0 μg/rabbit; 6-7 μg/kg) in 0.2 mL volume doses. Adult rabbits were dosed with Tc-99m labeled peptide intravenously in a lateral ear vein by slow bolus infusion (approximately 0.1 mL/min). A gamma camera fitted with a pin-hole collimator (5 mm aperture) and energy window set for Tc-99m and programmed to accumulate 500,000 counts or scan for a desired time. Shortly before imaging, animals were anesthetized with a mixture of ketamine and xylazine (5:1, 1 mL/kg intramuscularly).
Gamma camera images were collected at 40-45° just above the heart (left anterior oblique [LAO] view) to delineate the aortic arch and view the descending aorta. Images were acquired at 1 and 2 h and occasionally at 3 and 5 h after injection. Supplementary anesthesia was injected as needed prior to each image collection.
At 2.5 h (after a 2 h scan), animals were sacrificed with an intravenous dose of sodium pentobarbital. Upon necropsy, the aorta was removed and branching vessels dissected free from the aortic valve to the mid-abdominal region. Using a parallel hole collimator, the aorta was imaged ex corpora. Next, the aortae were opened longitudinally and stained with Sudan IV, thereby turning atherosclerotic plaque a deep red brick color. Lipid-free and uninjured aortic endothelium retains its normal, glistening white-pink appearance under these conditions.

[2] = Tc-99m labeled, i.v., tissues after final image (about 4 h), average ± SD

Principal clearance pathway (atherosclerotic plaque; rabbit, in vivo) | Systemic clearance (atherosclerotic plaque; rabbit, in vivo, iv) | Substance | % ID/g Thrombus ([1]; Tc-99m labeled, i.v., thrombus dissected after final image (about 4 h), average ± SD) | Thrombus/Blood ratio [1, 2] | Thrombus/Muscle ratio [1, 2] | Thrombus/Background ratio ([1]; counts/pixel in ROI over thrombus and adjacent muscle from images, Tc-99m labeled, i.v., n = 1) | Time to clearly established localization of thrombus ([1]; post-injection) | Time of first indications of labeled peptide uptake in images ([1]; post-injection, anterior view over hind legs of one dog (FIG. 4)) | Time to unequivocal localization in images ([1]; post-injection, one dog (FIG. 4), persisted until the end of the imaging period) | Persistence of thrombus localization ([1]; post-injection, with increasing contrast and focal definition) | Radioactivity accumulation in HC aortae imaged ex corpora (atherosclerotic plaque; HC-fed rabbits, aorta removed at 2.5 h) | Correlation of in vivo and ex corpora images with Sudan IV deposition patterns (atherosclerotic plaque; HC-treated rabbit aortae) | Imaging of atherosclerotic plaque (uptake) (atherosclerotic plaque; Tc-99m labeled) | Uptake in normal aortic tissue (atherosclerotic plaque; control (plaque-free) aortae)
– | – | (CH2 CO--YD.Apc.GDCGGCAcm GCAcm GGC.amide)2 -[BAT-BS] [Compound P357] | 0.016 ± 0.005 % ID/g | 5.6 ± 1.4 | 17 ± 4.7 | 2.3 | ≤ 1 h | 23 min | ≤ 71 min | ~4 h | – | – | – | –
hepatobiliary system | rapid systemic clearance | [BAT]RALVDTLKFVTQAEGAK.amide [Compound P215] | – | – | – | – | – | – | – | – | greatest deposition in the region of the aortic arch | Positive correlations | high uptake | minimal uptake
